Assay results: US12595251B2, “Amidines and amidine analogs for the treatment of bacterial infections and potentiation antibiotics” (GEORGIA STATE UNIVERSITY RESEARCH FOUNDATION, INC., priority 2018, dated 2026)
Values joined by “and” are separate entries in the source; they are usually repeats but may differ in a detail not shown here. Identical values can stand only once. Counter-ions that a name gives are not always drawn. Like-named read-outs stand apart in the source and are kept apart here.

Experiments:
[1] = test system: MRSA; test: Sensitization of MRSA to erythromycin (sensitization fold from IC90); format: cell-based, Staphylococcus aureus; conditions: for SF (MRSA) at 12 μM: compound at 12 μM; for SF (MRSA) at 12 μM / SF (MRSA) at 25 μM: NA=no activity; for SF (MRSA) at 25 μM: compound at 25 μM; for SF (MRSA) at 6 μM: compound at 6 μM; for SF (MRSA) at 4 μM: compound at 4 μM
Procedure: MRSA bacteria were cultured in nutrient broth at 37° C. overnight prior to treatment. […] Bacterial density was measured based on OD600.

[2] = test system: wild-type E. coli; test: Sensitization of wild-type E. coli toward antibiotics (MIC of antibiotic with/without sensitizer); format: cell-based, Escherichia coli; conditions: for MIC: Escherichia coli; for FIC: fractional inhibitory concentration, antibiotic plus Compound C 5 μg/ml
Procedure: Bacteria were cultured with the antibiotic at various concentrations in the presence or absence of bacterial sensitizer for 24 hours at 37° C. Bacterial growth density was determined by measuring OD600 (absorbance measured at a wavelength of 600 nm). […]
The formula for calculating FIC is shown below: […]

[3] = test system: wild type B. subtilis; test: Sensitization of B. subtilis toward antibiotics (MIC, OD600, 24 h); format: cell-based, Bacillus subtilis; conditions: for MIC of antibiotic on B. subtilis in the presence of Compound M-1: 5.5 μg/ml Compound M-1
Procedure: FIG. 22A is a bar graph showing that Compound M-1 sensitizes B. subtilis towards rifampicin as described in Example 13. Bacteria was cultured with rifampicin at various concentrations in the presence or absence of Compound M-1 for 24 hours at 37° C. and bacterial growth density was determined by measuring OD600. The y-axis is growth density measured in percent. The x-axis is rifampicin concentration measured in micrograms per milliliter (***: p<0.01).
Compound M-1 can sensitize Gram-positive bacteria such as B. subtilis towards traditional antibiotics. […] The sensitization fold is 32-fold for Compound M-1 and the FIC index is 0.14.

[4] = test system: wild type B. subtilis; test: as above; format: cell-based, Bacillus subtilis
[5] = test system: MRSA; test: MIC of compounds against MRSA (OD600, 48 h); format: cell-based; conditions: Staphylococcus aureus; for inhibition at 6 µM: read-out: Growth inhibition of MRSA at 6 μM, compound alone at 6 μM, NA=no activity; for MIC: MIC = 90% growth inhibition, compound alone, 48 h; for inhibition at 12 µM: compound alone at 12 μM, NA=no activity, read-out: Growth inhibition of MRSA at 12 μM
Procedure: Bacteria were then cultured with varying concentration of the compounds shown below for 48 hours, and then bacterial density was measured based on OD600. The minimum inhibitory concentration (MIC, 90% growth inhibition) was calculated for each compound, as shown in Table 4 (NA=no activity; --=not measured).

[6] = test system: E. coli; test: Sensitization of E. coli to erythromycin (sensitization fold from IC90, OD600, 20 h); format: cell-based, Escherichia coli; conditions: for SF (E. coli) at 25 μM: compound at 25 μM; for SF (E. coli) at 12.5 μM: compound at 12.5 μM
Procedure: (§1) E. coli bacteria were cultured in Miller's broth at 37° C. overnight prior to treatment. B. subtilis bacteria were cultured in nutrient broth at 37° C. overnight prior to treatment. […] Bacterial density was measured based on OD600.

[7] = test system: MRSA; test: Sensitization of MRSA toward antibiotics (OD600, 24 h); format: cell-based, Staphylococcus aureus
Procedure: Bacteria was cultured with rifampicin at various concentrations in the presence or absence of Compound M-1 for 24 hours at 37° C. and bacterial growth density was determined by measuring OD600. The y-axis is growth density measured in percent. The x-axis is rifampicin concentration measured in micrograms per milliliter (***: p<0.01).
Compound M-1 (2.7 μg/ml) sensitizes MRSA towards existing antibiotics such as rifampicin (32-fold) (FIG. 22B) and trovafloxacin (16-fold). Rifampicin is the first line of defense against MRSA and many MRSA stains grow resistance to rifampicin through overexpression of efflux pump and other mechanisms. Combined with Compound M-1, rifampicin can be used more effectively against MRSA.

[8] = test system: HEK293 cells; test: Cytotoxicity in HEK293 cells (CCK-8, 24 h); format: cell-based; conditions: NT=not toxic
Procedure: H9c2 (ATCC®R-1446™) cells Were used in the studies. The H9c2 cells were maintained in DMEM (Dulbeccoa's Modified Eagle's Medium) supplemented with 10% fetal bovine serum (Mid Sci; S01520HI) and 1% penicillin-streptomycin (Sigma-Aldrich; P4333) at 37° C. with 5% CO2. The H9c2 cells were seeded in 96-well plate one day before the experiment. Different concentrations of di-amidine compounds were added into the H9c2 cells. The cells were then incubated with the compounds for 24 h at 37° C. with 5% CO2. The cell viability was tested by the CCK-8. Specifically, after 24 h incubation, 10 μL CCK-8 was added to each well. After 3 h incubation at 37° C., the absorbance at 450 nm was recorded by a plate reader. The cytoxicity in HEK293 and 3T3 cells was measured using the same procedure. Data is shown in Table 5 (NT=not toxic; --=not tested).

[9] = test system: NDM-1 over-expressing E. coli; test: microbe, parasite or virus in culture; format: cell-based, Escherichia coli
[10] = test system: B. subtilis; test: Sensitization of B. subtilis to erythromycin (sensitization fold from IC90, OD600, 20 h); format: cell-based, Bacillus subtilis; conditions: erythromycin, NA=no activity; for SF (B. subtilis) at 6 μM: compound at 6 μM; for SF (B. subtilis) at 12 μM: compound at 12 μM
Procedure: as §1

[11] = antibiotic alone, wild-type E. coli, read-out: MIC of AB only
[12] = read-out: MIC of AB with Compound C (5 μg/ml), antibiotic plus Compound C 5 μg/ml, wild-type E. coli
[13] = antibiotic plus Compound C 5 μg/ml

## Cc1cc(COc2ccc(C3=NCCCN3)cc2)cc(COc2ccc(C3=NCCCN3)cc2)c1 [drawing 842]
[1]
  SF (MRSA) at 12 μM: 4 fold
  SF (MRSA) at 25 μM: 8 fold

## CC[C@H]1OC(=O)[C@H](C)[C@@H](O[C@H]2C[C@@](C)(OC)[C@@H](O)[C@H](C)O2)[C@H](C)[C@@H](O[C@@H]2O[C@H](C)C[C@H](N(C)C)[C@H]2O)[C@](C)(O)C[C@@H](C)C(=O)[C@H](C)[C@@H](O)[C@]1(C)O [Erythromycin, erythromycin]
[2]; [11]
  MIC: 50 µg/mL
[2]; [12]
  MIC: 0.4 µg/mL
[2]; wild-type E. coli
  FIC: 0.11
[3]
  MIC of antibiotic on B. subtilis in the presence of Compound M-1: 1.5 µg/mL
[4]; antibiotic alone
  MIC of antibiotic on B. subtilis in the absence of Compound M-1: 50 µg/mL

## CC(C)(C)c1cc(COc2ccc(C(=N)N)cc2F)cc(COc2ccc(C(=N)N)cc2F)c1 [drawing 844]
[5]
  inhibition at 6 µM: 60%

## COc1cc(C(=N)N)ccc1OCc1cc(C)cc(COc2ccc(C(=N)N)cc2OC)c1 [drawing 836]
[1]
  SF (MRSA) at 6 μM: 2-4 fold
  SF (MRSA) at 12 μM: 8-16 fold
[5]
  MIC: 25 µM
  inhibition at 12 µM: 10%

## Cc1cc(COc2ccc(C3=NCCCN3)cc2)cc(COc2ccc(C3=NCCCN3)cc2)c1 [Compound B-21, 2,2′-((((5-Methyl-1,3-phenylene)bis(methylene))bis(oxy))bis(4,1-phenylene))bis(1,4,5,6-tetrahydropyrimidine) dihydrochloride]
[6]; general statement on amidine substitution or ring restraint
  Ability to sensitize Gram-negative bacteria (while preserving ability to sensitize some Gram-positive bacteria): greatly decrease, or even abolish
[3]; compound at 10 μg/ml
  Sensitization effect on B. subtilis: no effect
[7]; compound at 10 μg/ml
  Sensitization fold, MRSA towards rifampicin: 16 fold

## Cc1cc(COc2ccc(C(=N)N)cc2F)cc(COc2ccc(C(=N)N)cc2F)c1 [drawing 846]
[5]
  MIC: 12 µM
  inhibition at 6 µM: 20%

## Cc1cc(COc2cccc(C(=N)N)c2)cc(COc2cccc(C(=N)N)c2)c1 [drawing 845]
[1]; compound at 12.5 μM
  SF (MRSA) at 12.5 μM: 4-fold at 12.5 μM
[5]
  MIC: 25 µM
[5]; compound alone at 12.5 μM, read-out: Growth inhibition of MRSA at 12.5 μM
  inhibition at 12.5 µM: 30%

## Cc1cc(COc2cccc(C(=N)N)c2)cc(COc2cccc(C(=N)N)c2)c1 [drawing 884]
[8]
  HEK293 cytotoxicity at 100 μM ("100 μM result in x%"): 100 μM result in 20%

## CO[C@H]1/C=C/O[C@@]2(C)Oc3c(C)c(O)c4c(O)c(c(/C=N/N5CCN(C)CC5)c(O)c4c3C2=O)NC(=O)/C(C)=C\C=C\[C@H](C)[C@H](O)[C@@H](C)[C@@H](O)[C@@H](C)[C@H](OC(C)=O)[C@@H]1C [Rifampicin, rifampicin]
[2]; 24 h, antibiotic alone, wild-type E. coli, read-out: MIC of AB only
  MIC: 10 µg/mL
[2]; [11]
  MIC: 10 µg/mL
[2]; [12]
  MIC: 0.02 µg/mL
[2]; MIC of antibiotic only / MIC of antibiotic with Compound C 5 μg/ml, wild-type E. coli
  Sensitization fold: 516 and 512
[2]; wild-type E. coli
  FIC: 0.11 and 0.10
[9]; MIC of antibiotic only / MIC with Compound C 5 μg/ml
  Sensitization fold: 516
[9]; [13]
  FIC: 0.11
  MIC of AB with Compound C (5 μg/ml): 0.019 µg/mL
[3]
  MIC of antibiotic on B. subtilis in the presence of Compound M-1: 0.037 µg/mL

## Cc1cc(CCc2ccc(C(=N)N)cc2)cc(CCc2ccc(C(=N)N)cc2)c1 [drawing 838]
[1]; compound at 3 μM
  SF (MRSA) at 3 μM: 16-fold at 3 μM
[5]
  MIC: 12 µM

## CC(C)NC(=N)c1ccc(OCc2cccc(COc3ccc(C(=N)NC(C)C)cc3)c2F)cc1 [drawing 839]
[1]
  SF (MRSA) at 4 μM: 16-fold at 4 μM
[5]
  MIC: 12.5 µM

## COc1cc(C(=N)N)ccc1OCc1cc(COc2ccc(C(=N)N)cc2OC)cc(C(C)(C)C)c1 [drawing 882]
[8]
  HEK293 cytotoxicity at 100 μM ("100 μM result in x%"): 100 μM result in 20%

## COc1cc(C(=N)N)ccc1OCc1cc(C)cc(COc2ccc(C(=N)N)cc2OC)c1 [drawing 871]
[8]
  HEK293 cytotoxicity at 100 μM ("100 μM result in x%"): 100 μM result in 10%

## Cc1cc(COc2ccc(CN)cc2)cc(COc2ccc(CN)cc2)c1 [Compound E-11, 1,3-Bis {(4-methanamine)-phenoxymethyl}-5-methylbenzene dihydrochloride]
[7]; compound at 5 μg/ml
  Sensitization effect on MRSA: no effect
[4]; compound at 5 μg/ml
  Sensitization fold, B. subtilis towards erythromycin: 32 fold

## Cc1cc(COc2cccc(C(=N)N)c2)cc(COc2cccc(C(=N)N)c2)c1 [drawing 743]
[6]; erythromycin, compound at 12 μM, NA=no activity
  SF (E. coli) at 12 μM: 2 fold
[6]; erythromycin, NA=no activity
  SF (E. coli) at 25 μM: 8 fold
[10]
  SF (B. subtilis) at 6 μM: 8 fold
  SF (B. subtilis) at 12 μM: 32 fold

## CCCNC(=N)c1ccc(COc2cc(C)cc(OCc3ccc(C(=N)NCCC)cc3)c2)cc1 [drawing 841]
[1]
  SF (MRSA) at 12 μM: 8 fold
  SF (MRSA) at 25 μM: 8-16 fold
[5]; read-out: Growth inhibition of MRSA at 25 μM, compound alone at 25 μM, NA=no activity
  inhibition at 25 µM: 30%

## CC(C)NC(=N)c1ccc(OCc2cccc(COc3ccc(C(=N)NC(C)C)cc3F)c2F)c(F)c1 [drawing 840]
[1]
  SF (MRSA) at 6 μM: 8 fold
  SF (MRSA) at 12 μM: 8-16 fold
[5]
  inhibition at 12 µM: 30%

## N=C(N)c1ccc(OCc2cc(COc3ccc(C(=N)N)cc3)cc(COc3ccc(C(=N)N)cc3)c2)cc1 [drawing 875]
[8]
  HEK293 cytotoxicity at 100 μM ("100 μM result in x%"): 100 μM result in 10%

## COc1cc(C(=N)N)ccc1OCc1cc(COc2ccc(C(=N)N)cc2OC)cc(C(C)(C)C)c1 [drawing 741]
[6]; erythromycin, compound at 6 μM, NA=no activity
  SF (E. coli) at 6 μM: 2 fold
[6]; erythromycin, NA=no activity
  SF (E. coli) at 12.5 μM: 8 fold
[10]
  SF (B. subtilis) at 6 μM: 2 fold
  SF (B. subtilis) at 12 μM: 8 fold

## Cc1cc(COc2ccc(C(=N)N)cc2)cc(COc2ccc(C(=N)N)cc2)c1 [drawing 834]
[1]
  SF (MRSA) at 6 μM: 32-fold at 6 μM
[5]
  MIC: 25 µM

## Cc1ccc(COc2ccc(C(=N)N)cc2)cc1COc1ccc(C(=N)N)cc1 [drawing 746]
[6]; erythromycin, NA=no activity
  SF (E. coli) at 12.5 μM: 4 fold
  SF (E. coli) at 25 μM: 32 fold
[10]
  SF (B. subtilis) at 6 μM: 16 fold
  SF (B. subtilis) at 12 μM: 32 fold

## COc1cc(C(=N)N)ccc1OCc1cc(COc2ccc(C(=N)N)cc2OC)cc(C(C)(C)C)c1 [drawing 843]
[5]
  MIC: 12 µM

## Cc1cc(COc2ccc(C(=N)NC(C)C)cc2)cc(COc2ccc(C(=N)NC(C)C)cc2)c1 [drawing 835]
[1]
  SF (MRSA) at 4 μM: 32-fold at 4 μM
[5]
  MIC: 25 µM
